What all share (assay type): cell-based
In one assay the test system is SARS-CoV-2 replicon. The assay is described as follows: microbe, parasite or virus in culture. The following applies: for IC50: Severe acute respiratory syndrome coronavirus 2, HEK-293T, read-out: IC50 upon replicon RNA synthesis (luciferase activity); for Result of compound library screening on replicon: Approved Drug Screening Library, final concentration 20 μM, 24 h treatment.

The next assay has as its system authentic SARS-CoV-2. The assay is described as follows: Authentic SARS-CoV-2 infection assay, viral RNA copies by RT-qPCR. The following applies: Severe acute respiratory syndrome coronavirus 2, HEK-293T, 24 h, read-out: IC50 on authentic viruses (viral RNA copies).
The test system of the next assay is IRES-CMV-luciferase. The assay is described as follows: IRES-CMV-luciferase plasmid counter-assay in 293T cells.
Assay [1] relates to GFP signal of ps2V plasmid.
[2] abbreviates: 293T cells, drug added 24 to 30 h after transfection, 24 h treatment.
[3] abbreviates: Homo sapiens, HEK-293T, read-out: IC50 on IRES-CMV-luciferase activity, 293T cells, drug added 24 to 30 h after transfection, 24 h treatment.

Each structure is given as a SMILES string. Read-outs that look alike come from different tables or passages of the source.

Regarding `CCc1cc2c(cc1N1CCC(N3CCOCC3)CC1)C(C)(C)c1[nH]c3cc(C#N)ccc3c1C2=O` [alectinib], the results for the IC50 with SARS-CoV-2 replicon and in the assay on authentic SARS-CoV-2 were 0.564 ± 0.0175 µM and 0.14 ± 0.0913 µM, respectively. Also, the “IC50 on IRES-CMV-luciferase activity” value in the assay on IRES-CMV-luciferase (setting [2]) was “no statistical significance”.

For `CC(C)c1nc(CN(C)C(=O)N[C@H](C(=O)N[C@@H](Cc2ccccc2)C[C@H](O)[C@H](Cc2ccccc2)NC(=O)OCc2cncs2)C(C)C)cs1` [ritonavir], in the assay on SARS-CoV-2 replicon, the concentration for half-maximal inhibition (IC50) came to 14.8 ± 1.05 µM. The “Effect on GFP signal” value in assay [1] is listed as “little effect on GFP signal”.

For the compound `C[C@@H]1O[C@@H](O[C@H]2C[C@@H](O)[C@]3(CO)[C@H]4[C@H](O)C[C@]5(C)[C@@H](C6=CC(=O)OC6)CC[C@]5(O)[C@@H]4CC[C@]3(O)C2)[C@H](O)[C@H](O)[C@H]1O` [ouabain], the “Result of compound library screening on replicon” value (from here on “Result”) in the assay with SARS-CoV-2 replicon is “hit”.

For `CCN(CC)C(=S)SSC(=S)N(CC)CC` [disulfiram], the IC50 in the assay on SARS-CoV-2 replicon is 9.32 ± 1.65 µM. Also, in assay [1], the “Effect on GFP signal” value is recorded as “little effect on GFP signal”.

Take `Cc1cccc(C)c1OCC(=O)N[C@@H](Cc1ccccc1)[C@@H](O)C[C@H](Cc1ccccc1)NC(=O)[C@H](C(C)C)N1CCCNC1=O` [lopinavir]: the half-maximal inhibitory concentration (IC50) with SARS-CoV-2 replicon turned out to be 6.79 ± 1.09 µM. The “Effect on GFP signal” value in assay [1] is “little effect on GFP signal”.

In the case of `Cc1ccc(NC(=O)c2ccc(CN3CCN(C)CC3)cc2)cc1Nc1nc(-c2cccnc2)cs1` [masitinib], the IC50 with SARS-CoV-2 replicon worked out at 0.652 ± 0.0661 µM; in the assay on authentic SARS-CoV-2, 0.597 ± 0.341 µM; with IRES-CMV-luciferase (setting [3]) it was 8.64 µM.

On to `CC[C@H]1CN2CCc3cc(OC)c(OC)cc3[C@@H]2C[C@@H]1C[C@H]1NCCc2cc(OC)c(OC)cc21` [emetine], for which, in the assay with SARS-CoV-2 replicon, the “Result” value is listed as “hit” and the half-inhibitory concentration (IC50) was 0.273 ± 0.0093 µM. In addition, the “Effect on GFP signal” value in assay [1] was “little effect on GFP signal”. In addition, the IC50 in the assay with authentic SARS-CoV-2 came to 0.155 ± 0.068 µM.

As to `C=CC(=O)Nc1cccc(Nc2nc(Nc3ccc(N4CCN(C(C)=O)CC4)cc3OC)ncc2C(F)(F)F)c1` [rociletinib], the 50% inhibitory concentration (IC50) with SARS-CoV-2 replicon was determined as 7.32 ± 1.21 µM; with authentic SARS-CoV-2 it was 11.2 ± 1.89 µM. Also, the “IC50 on IRES-CMV-luciferase activity” value in the assay with IRES-CMV-luciferase (setting [2]) is “no statistical significance”.

On to `CCC(CC)COC(=O)[C@H](C)N[P@](=O)(OC[C@H]1O[C@@](C#N)(c2ccc3c(N)ncnn23)[C@H](O)[C@@H]1O)Oc1ccccc1` [remdesivir], for which the IC50 with SARS-CoV-2 replicon was found to be 12.4 ± 1.08 µM. For the same compound, in assay [1], the “Effect on GFP signal” value is on record as “little effect on GFP signal”.

As to `O=C1c2c(O)ccc(O)c2C(=O)c2c(NCCNCCO)ccc(NCCNCCO)c21` [mitoxantrone], the half-inhibitory concentration (IC50) in the assay on SARS-CoV-2 replicon came out at 0.338 ± 0.235 µM; with authentic SARS-CoV-2, 0.133 ± 0.0901 µM; in the assay on IRES-CMV-luciferase (293T cells, drug added 24 to 30 h after transfection, 24 h treatment, read-out: IC50 on IRES-CMV-luciferase activity), 26.8 ± 1.2 µM; in the assay with IRES-CMV-luciferase (setting [3]), 27.8 µM.

`C[C@H]1O[C@@H](O[C@H]2[C@@H](O)C[C@H](O[C@H]3[C@@H](O)C[C@H](O[C@H]4CC[C@@]5(C)[C@H](CC[C@@H]6[C@@H]5CC[C@]5(C)[C@@H](C7=CC(=O)OC7)CC[C@]65O)C4)O[C@@H]3C)O[C@@H]2C)C[C@H](O)[C@@H]1O` [digitoxin]: the “Result” value in the assay with SARS-CoV-2 replicon is reported as “hit”.

As for `COc1cccc2c1C(=O)c1c(O)c3c(c(O)c1C2=O)C[C@@](O)(C(=O)CO)C[C@@H]3O[C@H]1C[C@H](N)[C@H](O)[C@H](C)O1` [Adriamycin], the values for the IC50 in the assay with SARS-CoV-2 replicon, in the assay on authentic SARS-CoV-2 and in the assay with IRES-CMV-luciferase (setting [3]) were 0.824 ± 0.114 µM, 0.612 ± 0.228 µM and 17.8 µM, respectively.

(Values after paper PMC7845634 (mBio, 2021).)
